These molecules were tested on M17—3TAU(P301L) cells (assay: Neuroblastoma tauopathy model: inhibition of TAU-induced cytotoxicity (LDH)). Conditions: Homo sapiens, 168 h; inhibition of TAU-induced toxicity (LDH), 7 days differentiation with retinoic acid.
Format: cell-based
Description: A TAU expression plasmid was constructed by sub-cloning the cDNA encoding for human TAU-P301L protein, wherein proline at position 301 is substituted by a leucine residue, into mammalian expression vector pcDNA3.1 resulting in the plasmid pcDNA3.1-TAUP301L. Plasmids pcDNA3.1 and pcDNA3.1-TAU P301L were transfected into human neuroblastoma cells (BE-M17; ATCC No. CRL-2267™) using lipofectamine reagent and subsequently, independent clonal cell lines with the plasmids stably integrated into the genome were selected by antibiotic resistance selection (Geneticin (G418)), resulting in cell lines M17.pcDNA3 and M17—3TAUP301L. Expression of the TAUP301L gene in the M17—3TAUP301L cells was confirmed by Western blot analysis.
Differentiation of the cells with RA leads to phosphorylation and subsequent aggregation of TAU, inducing a tauopathy in these cells. Cytotoxicity of cells was measured by quantification of lactate dehydrogenase (LDH) levels. In dead cells LDH is leaked out of the cells into the medium due to a loss of plasma-membrane integrity.
Briefly, 3 days preceding the experiment pre-cultures of M17.pcDNA3 and M17—3TAU(P301L) cells were prepared, starting from a stock culture, at a density of 50.000-100.000 cells/cm2 in detection medium (Optimem Reduced Serum without phenol red (Gibco, Cat. 31985-047) supplemented with 1% fetal calf serum (FCS), 1 mM sodium pyruvate, 1× non-essential amino acids (NEAA), 500 μg/ml G418 and 0.5× antibiotic/antimycotic (ABAM)). At the day of the experiment these precultures were diluted to ˜0, 1.106 cells/ml in detection medium without FCS and 60 μL of this suspension is dispensed per well into a 96-well microtiter plate. After 3 hours of incubation at 37° C./5% CO2 an equal volume of detection medium containing 2.5 μM RA was added and subsequently incubated for 7 days at 37° C./5% CO2. After 7 days, LDH activity was determined using the Promega Cytotox 96 Non-Radioactive cytotoxicity assay (Cat. G1780), according the manufacturer's instructions. Cytotoxicity is measured as the ratio of LDH increase in the supernatant divided by the LDH increase in the total cell suspension (sum of the LDH measured in cells and supernatant).
The M17—3TAU(P301L) cell line makes it possible to assess the ability of novel compounds to inhibit TAU-induced cytotoxicity. […] Compounds were tested for their ability to hamper TAU-induced toxicity at different concentrations, ranging from low non-effective concentrations to high potent concentrations. Afterwards, the dose-dependent inhibition curve was used to calculate their EC50 (Table 1).
Work on `Cc1cc(-c2nsc(N3CCN(CCc4ccc(F)c(F)c4)CC3)n2)cnn1` [Example 175, 5-(4-(3,4-difluorophenethyl)piperazin-1-yl)-3-(6-methylpyridazin-4-yl)-1,2,4-thiadiazole] yielded an EC50 of 13.4 nM.
`Cc1ccc(-c2nsc(N3CCN(Cc4ccc(Cl)cc4Cl)CC3)n2)cc1` [Example 3, 1-(2,4-Dichloro-benzyl)-4-(3-p-tolyl-[1,2,4]thiadiazol-5-yl)-piperazine] gave an EC50 of 987 nM.
`COc1ccc(-c2nsc(N3CCN(CCc4cccc(OC)c4)CC3)n2)cc1` [Example 49, 1-[2-(3-Methoxy-phenyl)-ethyl]-4-[3-(4-methoxy-phenyl)-[1,2,4]thiadiazol-5-yl]-piperazine] was tested, and the EC50 was 49.6 nM.
`N#Cc1cccc(-c2nsc(N3CCN(CCc4ccc(F)cc4)CC3)n2)c1` [Example 111, 3-(5-{4-[2-(4-Fluoro-phenyl)-ethyl]piperazin-1-yl}-[1,2,4]thiadiazol-3-yl)-benzonitrile] was tested, and the EC50 was 3.1 nM.
`Fc1ccc(CCN2CCN(c3nc(-c4cccc(F)c4)ns3)CC2)cc1` [Example 86, 1-[2-(4-Fluoro-phenyl)-ethyl]-4-[3-(3-fluoro-phenyl)-[1,2,4]thiadiazol-5-yl]-piperazine] was tested, and the EC50 was 8.9 nM.
Molecule `Clc1ccc(-c2nsc(N3CCN(CCc4ccccc4Cl)CC3)n2)cc1` [Example 29, 1-[2-(2-Chloro-phenyl)-ethyl]-4-[3-(4-chloro-phenyl)-[1,2,4]thiadiazol-5-yl]-piperazine] has an EC50 of 1.3 nM.
`FC(F)(F)c1cccc(CCN2CCN(c3nc(-c4ccc(Cl)cc4)ns3)CC2)c1` [Example 140, 1-[3-(4-Chloro-phenyl)-[1,2,4]thiadiazol-5-yl]-4-[2-(3-trifluoromethyl-phenyl)-ethyl]-piperazine] showed an EC50 of 72.6 nM.
`COc1ccc(CCN2CCN(c3nc(-c4cccc(F)c4)ns3)CC2)cn1` [Example 100, 1-[3-(3-Fluoro-phenyl)-[1,2,4]thiadiazol-5-yl]-4-[2-(6-methoxy-pyridin-3-yl)-ethyl]-piperazine] gave an EC50 of 4.3 nM.
`COc1cccc(CCN2CCN(c3nc(-c4cnccn4)ns3)CC2)c1` [Example 77, 2-(5-{4-[2-(3-Methoxy-phenyl)-ethyl]-piperazin-1-yl}-[1,2,4]thiadiazol-3-yl)-pyrazine] showed an EC50 of 261 nM.
In the case of `Cc1cc(-c2nsc(N3CCN(CCc4ccccc4)CC3)n2)ccn1` [Example 171, 3-(2-methylpyridin-4-yl)-5-(4-phenethylpiperazin-1-yl)-1,2,4-thiadiazole], the EC50 is reported as 2.4 nM.
`COc1ccc(C(=O)CN2CCN(c3nc(-c4ccc(Cl)cc4)ns3)CC2)cc1` [Example 53, 2-{4-[3-(4-Chloro-phenyl)-[1,2,4]thiadiazol-5-yl]-piperazin-1-yl}-1-(4-methoxy-phenyl)-ethanone] gave an EC50 of 12.6 nM.
Work on `COc1ccc(CCN2CCN(c3nc(-c4cccc(Cl)c4)ns3)CC2)cc1` [Example 41, 1-[3-(3-Chloro-phenyl)-[1,2,4]thiadiazol-5-yl]-4-[2-(4-methoxy-phenyl)-ethyl]-piperazine] yielded an EC50 of 0.7 nM.
With `Clc1ccc(CCN2CCN(c3nc(-c4cc(Cl)ccn4)ns3)CC2)cc1` [Example 123, 1-[2-(4-Chloro-phenyl)-ethyl]-4-[3-(4-chloro-pyridin-2-yl)-[1,2,4]thiadiazol-5-yl]-piperazine] the EC50 was 94.6 nM.
`Fc1ccc(-c2nsc(N3CCN(CCc4ccc(C(F)(F)F)cc4)CC3)n2)cc1F` [Example 146, 1-[3-(3,4-Difluoro-phenyl)-[1,2,4]thiadiazol-5-yl]-4-[2-(4-trifluoromethyl-phenyl)-ethyl]-piperazine] gave an EC50 of 60.1 nM.
With `COc1ccccc1CCCN1CCN(c2nc(-c3ccc(Cl)cc3)ns2)CC1` [Example 39, 1-[3-(4-Chloro-phenyl)-[1,2,4]thiadiazol-5-yl]-4-[3-(2-methoxy-phenyl)-propyl]-piperazine] the EC50 was 43.5 nM.
For `COc1cccc(CCN2CCN(c3nc(-c4ccc(C(F)(F)F)nc4)ns3)CC2)c1` [Example 30, 1-[2-(3-Methoxy-phenyl)-ethyl]-4-[3-(6-trifluoromethyl-pyridin-3-yl)-[1,2,4]thiadiazol-5-yl]-piperazine], the EC50 was 147 nM.
With `COc1ccc(CCN2CCN(c3nc(-c4ccncc4)ns3)CC2)cc1` [Example 43, 1-[2-(4-Methoxy-phenyl)-ethyl]-4-(3-pyridin-4-yl-[1,2,4]thiadiazol-5-yl)-piperazine] the EC50 was 3.3 nM.
`Fc1ccc(-c2nsc(N3CCN(CCC4CCCCC4)CC3)n2)cc1F` [Example 153, 1-(2-Cyclohexyl-ethyl)-4-[3-(3,4-difluoro-phenyl)-[1,2,4]thiadiazol-5-yl]-piperazine] showed an EC50 of 5.9 nM.
In the case of `COc1cc(CCN2CCN(c3nc(-c4cncc(Cl)c4)ns3)CC2)ccn1` [Example 133, 1-[3-(5-Chloro-pyridin-3-yl)-[1,2,4]thiadiazol-5-yl]-4-[2-(2-methoxy-pyridin-4-yl)-ethyl]-piperazine], the EC50 is reported as 1.4 nM.
With `Cc1cccc(CCN2CCN(c3nc(-c4ccc(Cl)cc4)ns3)CC2)c1` [Example 23, 1-[3-(4-Chloro-phenyl)-[1,2,4]thiadiazol-5-yl]-4-(2-m-tolyl-ethyl)-piperazine] the EC50 was 1.9 nM.
`Cc1ccc(-c2nsc(N3CCN(CCc4ccc(F)cc4)CC3)n2)cn1` [Example 96, 1-[2-(4-Fluoro-phenyl)-ethyl]-4-[3-(6-methyl-pyridin-3-yl)-[1,2,4]thiadiazol-5-yl]-piperazine] gave an EC50 of 28.1 nM.
Molecule `COc1cc(CCN2CCN(c3nc(-c4cc(Cl)ccn4)ns3)CC2)ccn1` [Example 127, 1-[3-(4-Chloro-pyridin-2-yl)-[1,2,4]thiadiazol-5-yl]-4-[2-(2-methoxy-pyridin-4-yl)-ethyl]-piperazine] has an EC50 of 109 nM.
`COc1ccc(CCN2CCN(c3nc(-c4cccc(F)c4)ns3)CC2)cc1` [Example 84, 1-[3-(3-Fluoro-phenyl)-[1,2,4]thiadiazol-5-yl]-4-[2-(4-methoxy-phenyl)-ethyl]-piperazine] was tested, and the EC50 was 0.7 nM.
For `Cc1ccc(-c2nsc(N3CCN(Cc4ccccc4C)CC3)n2)cn1` [Example 150, 1-(2-Methyl-benzyl)-4-[3-(6-methyl-pyridin-3-yl)-[1,2,4]thiadiazol-5-yl]-piperazine], the EC50 was 185 nM.
`Cc1ncc(-c2nsc(N3CCN(CCc4ccc(Cl)cc4)CC3)n2)cn1` [Example 180, 5-(4-(4-chlorophenethyl)piperazin-1-yl)-3-(2-methylpyrimidin-5-yl)-1,2,4-thiadiazole] was tested, and the EC50 was 129 nM.
`FC(F)(F)Oc1cccc(CCN2CCN(c3nc(-c4ccc(Cl)cc4)ns3)CC2)c1` [Example 38, 1-[3-(4-Chloro-phenyl)-[1,2,4]thiadiazol-5-yl]-4-[2-(3-trifluoromethoxy-phenyl)-ethyl]-piperazine] showed an EC50 of 211 nM.
For `Fc1ccc(CCN2CCN(c3nc(-c4ccc(Cl)cc4)ns3)CC2)cc1` [Example 24, 1-[3-(4-Chloro-phenyl)-[1,2,4]thiadiazol-5-yl]-4-[2-(4-fluoro-phenyl)-ethyl]-piperazine], the EC50 was 0.7 nM.
Molecule `COc1cccc(CCN2CCN(c3nc(-c4ccccc4Cl)ns3)CC2)c1` [Example 57, 1-[3-(2-Chloro-phenyl)-[1,2,4]thiadiazol-5-yl]-4-[2-(3-methoxy-phenyl)-ethyl]-piperazine] has an EC50 of 14.5 nM.
`COc1ccc(CCN2CCN(c3nc(-c4ccc(F)c(F)c4)ns3)CC2)cc1` [Example 102, 1-[3-(3,4-Difluoro-phenyl)-[1,2,4]thiadiazol-5-yl]-4-[2-(4-methoxy-phenyl)-ethyl]-piperazine] showed an EC50 of 0.9 nM.
`COc1cccc(CCCN2CCN(c3nc(-c4ccc(Cl)cc4)ns3)CC2)c1` [Example 32, 1-[3-(4-Chloro-phenyl)-[1,2,4]thiadiazol-5-yl]-4-[3-(3-methoxy-phenyl)-propyl]-piperazine] was tested, and the EC50 was 368 nM.
`COc1ccc(C(C)CN2CCN(c3nc(-c4ccc(Cl)cc4)ns3)CC2)cc1` (stereo not shown) [Example 72, 1-[3-(4-Chloro-phenyl)-[1,2,4]thiadiazol-5-yl]-4-[2-(4-methoxy-phenyl)-propyl]-piperazine] gave an EC50 of 94.3 nM.
`COc1ccc(CCN2CCN(c3nc(-c4cnccn4)ns3)CC2)cc1` [Example 76, 2-(5-{4-[2-(4-Methoxy-phenyl)-ethyl]-piperazin-1-yl}-[1,2,4]thiadiazol-3-yl)-pyrazine] showed an EC50 of 40.8 nM.
For `Cc1ccccc1CN1CCN(c2nc(-c3ccc(Cl)cn3)ns2)CC1` [Example 129, 1-[3-(5-Chloro-pyridin-2-yl)-[1,2,4]thiadiazol-5-yl]-4-(2-methyl-benzyl)-piperazine], the EC50 was 92.3 nM.
Molecule `FC(F)Oc1ccc(CCN2CCN(c3nc(-c4ccc(Cl)cc4)ns3)CC2)cc1` [Example 70, 1-[3-(4-Chloro-phenyl)-[1,2,4]thiadiazol-5-yl]-4-[2-(4-difluoromethoxy-phenyl)-ethyl]-piperazine] has an EC50 of 194 nM.
